Entries after “also recorded” stand apart in the source; their conditions may differ. Like-named read-outs stand apart in the source and are kept apart here. No end group written: not given here.
Legend:
mice = format: in vivo, mouse
cecal tissue explants = details: mouse, in vivo
mouse footpads = details: for oedema induced by TcdB2: footpad injection of TcdB2, antagonist pre-treatment
Description: The footpad toxin injection assay was performed as previously described. Briefly, mice were restrained in an incontinence pad and the footpad was held and subsequently injected using a 29.5G syringe into the plantar surface. […] Paw diameter changes were assessed by calculating a ratio relative to the un-injected foot. For each test toxin, 500 ng were administered in a volume of 20 μl of normal saline. Pharmacological assays were performed in female CDI mice, with pre-treatment with drugs 30 min to 1 h prior to toxin injection. For experiments involving transgenic mice, experiments were performed in male and female mice (age matched, 8-15 weeks).

C. difficile 630 Δerm [1] = assay: C. difficile growth in vitro (OD600); details: 20 μM, 24 h
[2] = test system: C. difficile M7404 (A-/B+); assay: CDI mouse model, hypervirulent strain M7404 (TcdA-/TcdB2); details: for fatality: CDI with M7404 (A-/B+), mice; for histopathological scores of colitis: surviving mice, CDI with M7404
C. difficile 630 Δerm [3] = assay: Antibiotic-treatment-induced CDI mouse model, C. difficile 630 Δerm; details: for histopathological scores: CDI mouse model, 630 Δerm, FIG. 4D; for histopathological scores / pathogen burden (C. difficile CFUs in faeces): WT mice; for pathogen burden (C. difficile CFUs in faeces): day 2 after infection
human brain pericytes = assay: IL-8 secretion from cultured pericytes (ELISA); format: cell-based
Description: Primary human cultured brain vascular pericytes (ScienCell, #1200) were routinely cultured in special medium with supplement, FBS and penicillin streptomycin provided by the cell's vendor (ScienCell, #1201). Cells were subcultured when confluent and used up to passage 10. For secretion assays these were performed on early passage cells (passages 3-8). Cytokine secretion in cell culture medium was determined using ELISA based assays against IL-8 (Biolegend, 431504). The effect of CGRP on cultured pericytes was determined by incubating pericytes for 1 h with human CGRPB (Cayman, 24725).

[4] = cecum injection of TcdB (6 μg), mice pretreated with antagonist 30 min to 1 h before, FIG. 4C

## C=C(C)[C@]12C[C@@H](C)[C@@]34O[C@](Cc5ccccc5)(O[C@@H]1[C@@H]3C=C(COC(=O)Cc1ccc(O)c(OC)c1)C[C@]1(O)C(=O)C(C)=C[C@@H]41)O2 [RTX, resiniferatoxin]
mice; mouse, in vivo
  histopathology upon TcdB administration: less severe histopathology
Cecal tissue explants
  CGRP secretion: reduced
  SP levels: reduced SP levels

## C[C@@H](O[C@H]1OCCN(Cc2n[nH]c(=O)[nH]2)[C@H]1c1ccc(F)cc1)c1cc(C(F)(F)F)cc(C(F)(F)F)c1 [aprepitant]
mice; [4]
  histopathological scores: reduced histopathological scores
Mouse footpads; footpad injection of TcdA, antagonist pre-treatment
  oedema induced by TcdA: prevented; also recorded: blocked
Mouse footpads
  oedema induced by TcdB2: prevented
Mouse footpads; listed as Aprepitant
  oedema induced by TcdB2: can prevent oedema induced by TcdB2
Mouse footpads; footpad injection of TcdB, antagonist pre-treatment
  oedema induced by TcdB: prevented oedema induced by TcdB
Mouse footpads; footpad, Tac1-Cre mice infected with AAV-DTR
  oedema induced by GTD-ciDT: blocked
C. difficile 630 Δerm [1]
  C. difficile growth rate / fitness (OD600): not affected; also recorded: Neither drug influenced C. difficile growth rate
[2]
  fatality: markedly reduced
  histopathological scores of colitis: markedly reduced
C. difficile 630 Δerm [3]
  histopathological scores: reduced histopathological scores
  pathogen burden (C. difficile CFUs in faeces): reduced pathogen burden
C. difficile 630 Δerm [3]; Tac1 KO mice
  effect on C. difficile colonization and histopathological scores: nor had an effect

## NCCCC[C@H](NC(=O)[C@@H](Cc1cc(Br)c(O)c(Br)c1)NC(=O)N1CCC(N2Cc3ccccc3NC2=O)CC1)C(=O)N1CCN(c2ccncc2)CC1 [olcegepant]
mice; [4]
  histopathological scores: reduced histopathological scores
Mouse footpads
  oedema induced by TcdB2: can prevent oedema induced by TcdB2; also recorded: prevented
C. difficile 630 Δerm [1]
  C. difficile growth rate / fitness (OD600): not affected; also recorded: Neither drug influenced C. difficile growth rate
[2]
  fatality: markedly reduced
  histopathological scores of colitis: markedly reduced
C. difficile 630 Δerm [3]
  histopathological scores: reduced histopathological scores
  pathogen burden (C. difficile CFUs in faeces): reduced pathogen burden
C. difficile 630 Δerm [3]; Calcb KO mice
  effect on C. difficile colonization and histopathological scores: nor had an effect

## CGRP: human CGRPβ (Cayman, 24725) added to cultured pericytes (ACNTATCVTHRLAGLLSRSGGMVKSNFVPTNVGSKAF; ends and bridges not checked; cysteine pairing not given here; UniProt P10092 82-118, looked up)
Human brain pericytes
  IL-8 secretion: induced secretion of IL-8

## substance P (RPKPQQFFGLM; not fully specified (C-terminus); ends and bridges not checked; UniProt P20366 58-68, looked up) [neuropeptide composed of a chain of 11 amino acids, tachykinin family]
mice; mouse, in vivo
  histopathological scores: restored histopathological scores
  susceptibility to TcdB (histopathology): restored the susceptibility
Cecal tissue explants
  CGRP secretion: restored

B1: fremanezumab (antibody, chains of the INN, looked up, V domains shown)
VH: EVQLVESGGGLVQPGGSLRLSCAASGFTFSNYWISWVRQAPGKGLEWVAEIRSESDASATHYAEAVKGRFTISRDNAKNSLYLQMNSLRAEDTAVYYCLAYFDYGLAIQNYWGQGTLVTVSS
VL: EIVLTQSPATLSLSPGERATLSCKASKRVTTYVSWYQQKPGQAPRLLIYGASNRYLGIPARFSGSGSGTDFTLTISSLEPEDFAVYYCSQSYNYPYTFGQGTKLEIK
mice; mouse, in vivo
  histopathological scores: reduced histopathological scores
C. difficile 630 Δerm [3]
  histopathological scores: reduced histopathological scores
